The results in this text go back to patent publication US11780826B2 (Amgen Inc., priority 2017, dated 2023).

The test system of this experiment is Bovine cardiac myofibrils. As to the kind of experiment: In vitro model of dose-dependent myofibril ATPase modulation (AC1.4, pyruvate kinase/lactate dehydrogenase-coupled ATPase assay at pCa25). The experiment is classed as biochemical. To be noted: concentration at which ATPase activity was 1.4-fold higher than the bottom of the dose curve, mean of a minimum of two independent tests. The method in brief: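 Compound dilutions were premixed with myofibrils, coupling enzymes, EGTA and CaCl2, then the reaction was started with an equal volume carrying ATP (final 1 mM), NADH and PEP. ATP turnover was followed at 340 nm, and dose responses were fit to a four-parameter equation.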
With `CC(C)(C(N)=O)c1cccc(C(=O)N2[C@@H](C(=O)N[C@@H](c3cc(F)c(Cl)cc3F)C3COC3)C[C@H]3C[C@H]32)c1` [Example 263, (1R,3R,5R)-2-(3-(1-amino-2-methyl-1-oxo-2-propanyl)benzoyl)-N-((R)-(4-chloro-2,5-difluorophenyl)(3-oxetanyl)methyl)-2-azabicyclo[3.1.0]hexane-3-carboxamide], the AC1.4 amounted to 0.6526 µM.

The molecule `N#CC1CN(S(=O)(=O)N2CCC[C@H](C(=O)N3CCC[C@@H]3C(=O)NCc3cccc(Cl)c3Cl)C2)C1` [Example 206, 1-(((3S)-1-((3-cyano-1-azetidinyl)sulfonyl)-3-piperidinyl)carbonyl)-N-(2,3-dichlorobenzyl)-D-prolinamide] returned an AC1.4 of 0.4338 µM.

The molecule `CC(C)(C)c1cc(C(=O)N2[C@@H](C(=O)N[C@@H](c3ccc(C(F)(F)F)cc3F)C3COC3)C[C@H]3C[C@H]32)ccn1` [Example 647, (1R,3R,5R)-N-((R)-(2-fluoro-4-(trifluoromethyl)phenyl)(3-oxetanyl)methyl)-2-((2-(2-methyl-2-propanyl)-4-pyridinyl)carbonyl)-2-azabicyclo[3.1.0]hexane-3-carboxamide] came in with an AC1.4 of 4.4125 µM.

Molecule `N#CC1CN(S(=O)(=O)N2CCC[C@H](C(=O)N3C[C@@H](F)C[C@@H]3C(=O)NCc3cccc(C(F)(F)F)c3)C2)C1` [Example 427, (4S)-1-(((3S)-1-((3-cyano-1-azetidinyl)sulfonyl)-3-piperidinyl)carbonyl)-4-fluoro-N-(3-(trifluoromethyl)benzyl)-D-prolinamide] gave an AC1.4 of 1.5865 µM.

In turn, `O=C(N[C@@H](c1cc(F)c(Cl)cc1F)C1COC1)[C@H]1C[C@H]2C[C@H]2N1C(=O)c1cncc(C(F)(F)F)c1` [Example 282, (1R,3R,5R)-N-((R)-(4-chloro-2,5-difluorophenyl)(3-oxetanyl)methyl)-2-((5-(trifluoromethyl)-3-pyridinyl)carbonyl)-2-azabicyclo[3.1.0]hexane-3-carboxamide] displayed an AC1.4 of 0.7195 µM.

For `O=C(N[C@@H](c1ccc(C(F)(F)F)cc1F)C1COC1)[C@H]1C[C@H]2C[C@H]2N1C(=O)c1cncc(C2CC2)c1` [Example 611, (1R,3R,5R)-2-((5-cyclopropyl-3-pyridinyl)carbonyl)-N-((R)-(2-fluoro-4-(trifluoromethyl)phenyl)(3-oxetanyl)methyl)-2-azabicyclo[3.1.0]hexane-3-carboxamide], the AC1.4 turned out to be 3.788 µM.

As for `N#CC1CN(S(=O)(=O)c2cccc(C(=O)N3Cc4ccccc4CC3C(=O)NCc3ccc(C(F)(F)F)cc3)c2)C1` (stereo not shown) [Example 671, 2-(3-((3-cyanoazetidin-1-yl)sulfonyl)benzoyl)-N-(4-(trifluoromethyl)benzyl)-1,2,3,4-tetrahydroisoquinoline-3-carboxamide], the AC1.4 came to 4.776 µM.

`C[C@@H](NC(=O)[C@H]1CCCN1C(=O)c1cccc(S(=O)(=O)N2CC(C#N)C2)c1)c1ccc(C(F)F)cc1` [Example 120, 1-((3-((3-cyano-1-azetidinyl)sulfonyl)phenyl)carbonyl)-N-((1R)-1-(4-(difluoromethyl)phenyl)ethyl)-D-prolinamide]: the AC1.4 is 0.1826 µM.

Consider `O=C(N[C@@H](c1ccc(C(F)(F)F)cc1F)C1COC1)[C@H]1C[C@H]2C[C@H]2N1C(=O)c1ccnc(C(F)(F)F)c1` [Example 392, (1R,3R,5R)-N-((R)-(2-fluoro-4-(trifluoromethyl)phenyl)(3-oxetanyl)methyl)-2-((2-(trifluoromethyl)-4-pyridinyl)carbonyl)-2-azabicyclo[3.1.0]hexane-3-carboxamide], for which the AC1.4 came out at 1.268 µM.

On to `COC(=O)CNS(=O)(=O)c1cccc(C(=O)N2CCC[C@@H]2C(=O)NCc2ccc(C(F)(F)F)cc2)c1` [Example 764, methyl N-((3-(((2R)-2-((4-(trifluoromethyl)benzyl)carbamoyl)-1-pyrrolidinyl)carbonyl)phenyl)sulfonyl)glycinate], for which the AC1.4 was found to be 7.912 µM.

`O=C(NCc1ccc(C(F)(F)F)cc1)[C@H]1CCCN1C(=O)[C@H]1CCCN(S(=O)(=O)N2CC(O)(C(F)(F)F)C2)C1` [Example 467, 1-(((3S)-1-((3-hydroxy-3-(trifluoromethyl)-1-azetidinyl)sulfonyl)-3-piperidinyl)carbonyl)-N-(4-(trifluoromethyl)benzyl)-D-prolinamide]: the AC1.4 stood at 1.9675 µM.

The molecule `CC(C)c1cc(C(=O)N2[C@@H](C(=O)N[C@@H](c3ccc(C(F)(F)F)cc3F)C3COC3)C[C@H]3C[C@H]32)ccn1` [Example 748, (1R,3R,5R)-N-((R)-(2-fluoro-4-(trifluoromethyl)phenyl)(3-oxetanyl)methyl)-2-((2-(2-propanyl)-4-pyridinyl)carbonyl)-2-azabicyclo[3.1.0]hexane-3-carboxamide] had an AC1.4 of 7.314 µM.

Take `N#CC1CN(S(=O)(=O)N2CCC[C@H](C(=O)N3CCC[C@@H]3C(=O)NC3COc4ccc(C(F)(F)F)cc43)C2)C1` (stereo partly drawn) [Example 657, (2R)-1-((S)-1-((3-cyanoazetidin-1-yl)sulfonyl)piperidine-3-carbonyl)-N-(5-(trifluoromethyl)-2,3-dihydrobenzofuran-3-yl)pyrrolidine-2-carboxamide]: the AC1.4 is 4.572 µM.

As to `CS(=O)(=O)c1cccc(C(=O)N2C[C@@H](F)C[C@@H]2C(=O)N[C@@H](c2cc(F)c(Cl)cc2F)C2COC2)c1` [Example 141, (4S)-N-((R)-(4-chloro-2,5-difluorophenyl)(3-oxetanyl)methyl)-4-fluoro-1-(3-(methylsulfonyl)benzoyl)-D-prolinamide], the AC1.4 is 0.2366 µM.

As for `O=C(NCc1ccc(C(F)(F)F)cc1)[C@H]1CCCN1C(=O)[C@H]1CCCN(S(=O)(=O)N2CCC2Cc2ccccc2)C1` (stereo partly drawn) [Example 720, (2R)-1-((3S)-1-((2-benzylazetidin-1-yl)sulfonyl)piperidine-3-carbonyl)-N-(4-(trifluoromethyl)benzyl)pyrrolidine-2-carboxamide], the AC1.4 came out at 6.27 µM.

The molecule `Cc1ccc(CNC(=O)[C@H]2CCCN2C(=O)[C@H]2CCCN(S(=O)(=O)N3CC(C#N)C3)C2)cc1` [Example 243, 1-(((3S)-1-((3-cyano-1-azetidinyl)sulfonyl)-3-piperidinyl)carbonyl)-N-(4-methylbenzyl)-D-prolinamide] showed an AC1.4 of 0.5746 µM.

In the case of `O=C(NCc1ccc(C(F)(F)F)cc1)[C@H]1CCCN1C(=O)[C@H]1CCCN(S(=O)(=O)N2CC(F)(C(F)(F)F)C2)C1` [Example 760, 1-(((3S)-1-((3-fluoro-3-(trifluoromethyl)-1-azetidinyl)sulfonyl)-3-piperidinyl)carbonyl)-N-(4-(trifluoromethyl)benzyl)-D-prolinamide], the AC1.4 stood at 7.661 µM.

Consider `O=C(NCc1ccc(C(F)(F)F)cc1)[C@H]1CCCN1C(=O)[C@H]1CCCN(S(=O)(=O)N2CC(OCC(F)F)C2)C1` [Example 311, 1-(((3S)-1-((3-(2,2-difluoroethoxy)-1-azetidinyl)sulfonyl)-3-piperidinyl)carbonyl)-N-(4-(trifluoromethyl)benzyl)-D-prolinamide], for which the AC1.4 was 0.8393 µM.

For the molecule `CS(=O)(=O)c1cccc(C(=O)N2[C@@H](C(=O)N[C@@H](c3ccc(C(F)(F)F)cc3F)C3(O)CC3)C[C@H]3C[C@H]32)c1` [Example 559, (1R,3R,5R)-N-((S)-(2-fluoro-4-(trifluoromethyl)phenyl)(1-hydroxycyclopropyl)methyl)-2-(3-(methylsulfonyl)benzoyl)-2-azabicyclo[3.1.0]hexane-3-carboxamrde], the AC1.4 stood at 2.7115 µM.

The molecule `Cc1noc(C)c1C(=O)N1[C@@H](C(=O)N[C@@H](c2cc(F)c(C(F)(F)F)cc2F)C2COC2)C[C@H]2C[C@H]21` [Example 825, (1R,3R,5R)-N-((R)-(2,5-difluoro-4-(trifluoromethyl)phenyl)(oxetan-3-yl)methyl)-2-(3,5-dimethylisoxazole-4-carbonyl)-2-azabicyclo[3.1.0]hexane-3-carboxamide] returned an AC1.4 of 9.3793 µM.

The molecule `N#CC1CN(S(=O)(=O)c2cccc(C(=O)N3CCC[C@@H]3C(=O)NCc3ncc(Cl)s3)c2)C1` [Example 376, N-((5-chloro-1,3-thiazol-2-yl)methyl)-1-((3-((3-cyano-1-azetidinyl)sulfonyl)phenyl)carbonyl)-D-prolinamide] had an AC1.4 of 1.2296 µM.

Molecule `C[C@@H](NC(=O)[C@H]1CCCN1C(=O)c1cccc(S(=O)(=O)N2CC(C#N)C2)c1)c1ccc(C(F)F)cc1F` [Example 49, 1-((3-((3-cyano-1-azetidinyl)sulfonyl)phenyl)carbonyl)-N-((1R)-1-(4-(difluoromethyl)-2-fluorophenyl)ethyl)-D-prolinamide] showed an AC1.4 of 0.05315 µM.

For `N#CC1CN(S(=O)(=O)c2cccc(C(=O)N3Cc4ccccc4C3C(=O)NCc3ccc(C(F)(F)F)cc3)c2)C1` (stereo not shown) [Example 93, 2-((3-((3-cyano-1-azetidinyl)sulfonyl)phenyl)carbonyl)-N-(4-(trifluoromethyl)benzyl)-2,3-dihydro-1H-isoindole-1-carboxamide], the AC1.4 was determined as 0.1413 µM.

For `CS(=O)(=O)c1ccc(NC2CCC2)c(C(=O)N2CCC[C@@H]2C(=O)N[C@@H](c2ccc(C(F)(F)F)cc2F)C2CC2)c1` [Example 44, 1-(2-(cyclobutylamino)-5-(methylsulfonyl)benzoyl)-N-((R)-cyclopropyl(2-fluoro-4-(trifluoromethyl)phenyl)methyl)-D-prolinamide], the AC1.4 came out at 0.0434 µM.

As for `CCNc1ccc(C)cc1C(=O)N1C[C@@H](O)C[C@@H]1C(=O)N[C@@H](c1cc(F)c(Cl)cc1F)C1COC1` [Example 110, (4S)-N-((R)-(4-chloro-2,5-difluorophenyl)(3-oxetanyl)methyl)-1-(2-(ethylamino)-5-methylbenzoyl)-4-hydroxy-D-prolinamide], the AC1.4 is 0.1732 µM.
